# Read-outs that look alike come from different tables or passages of the source.
# Assay: Pharmacokinetic parameters (Tmax, AUClast, Cmax) of DD217 in phase II trial patients
# Format: in vivo, human (patients undergoing knee replacement surgery)
# Details: human, plasma
# Text: The design, eligibility criteria, and outcomes of the phase II clinical trial evaluating the safety and tolerability of DD217 (NCT05189002, ClinicalTrials.gov) have been described previously. Briefly, this was a multicenter, double-blind, randomized, prospective phase II study designed to determine the optimal dosing regimen and to assess the safety and efficacy of DD217 for the prevention of venous thromboembolism (VTE) in patients undergoing knee replacement surgery. Patients were randomized into one of three groups: two groups received oral DD217 at doses of 40 mg or 60 mg once daily, starting on the morning of the first postoperative day, and one group received the active comparator, dalteparin sodium. The treatment duration was 14 days.
# In total, data from 52 patients who underwent knee replacement surgery were included in the analysis. Of these, 34 patients received DD217 at daily doses of 40 mg (n = 16) or 60 mg (n = 18), and 18 patients received dalteparin sodium.
# To characterize the pharmacokinetic profile of DD217 in our study, three parameters were assessed: Cmax, Tmax, and AUClast.
structure (smiles),measurement,setting,value
"CC(=N)N(C)c1ccc(C(=O)Nc2ccc(C)cc2C(=O)Nc2ccc(Cl)cn2)cc1.Cl [DD217, N-(5-chloropyridin-2-yl)-5-methyl-2-[4-(N-methylacetimidamido)benzamido]benzamide hydrochloride]",AUC(0-t),"im, 40 mg, CYP2C9 *1/*2, *1/*3, IM (n = 6), mean ± SD, read-out: AUClast",33.9 ± 36.2 ng·h/mL
same,Cmax,"im, 40 mg, CYP2C9 *1/*2, *1/*3, IM (n = 6), mean ± SD, read-out: Cmax",3.72 ± 5.61 ng/mL
same,Tmax,"im, 40 mg, CYP2C9 *1/*2, *1/*3, IM (n = 6), mean ± SD, read-out: Tmax",9 ± 8.17 h
same,AUC(0-t),"im, 40 mg, CYP2C19 *1/*2, IM (n = 1), read-out: AUClast",48.5 ng·h/mL
same,Cmax,"im, 40 mg, CYP2C19 *1/*2, IM (n = 1), read-out: Cmax",3.12 ng/mL
same,Tmax,"im, 40 mg, CYP2C19 *1/*2, IM (n = 1), read-out: Tmax",4 h
same,AUC(0-t),"im, 40 mg, CYP3A *1/*22, *1/*3, IM (n = 4), mean ± SD, read-out: AUClast",49 ± 48.7 ng·h/mL
same,Cmax,"im, 40 mg, CYP3A *1/*22, *1/*3, IM (n = 4), mean ± SD, read-out: Cmax",6.63 ± 8.63 ng/mL
same,Tmax,"im, 40 mg, CYP3A *1/*22, *1/*3, IM (n = 4), mean ± SD, read-out: Tmax",6.25 ± 3.5 h
same,AUC(0-t),"im, 60 mg, CYP2C9 *1/*2, *1/*3, IM (n = 5), mean ± SD, read-out: AUClast",89.8 ± 89.3 ng·h/mL
same,Cmax,"im, 60 mg, CYP2C9 *1/*2, *1/*3, IM (n = 5), mean ± SD, read-out: Cmax",9.24 ± 9.59 ng/mL
same,Tmax,"im, 60 mg, CYP2C9 *1/*2, *1/*3, IM (n = 5), mean ± SD, read-out: Tmax",3.2 ± 2.17 h
same,AUC(0-t),"im, 60 mg, CYP2C19 *1/*2, *2/*2, *2/*17, IM + PM (n = 4), mean ± SD, read-out: AUClast",32.3 ± 22.5 ng·h/mL
same,Cmax,"im, 60 mg, CYP2C19 *1/*2, *2/*2, *2/*17, IM + PM (n = 4), mean ± SD, read-out: Cmax",3.64 ± 3.51 ng/mL
same,Tmax,"im, 60 mg, CYP2C19 *1/*2, *2/*2, *2/*17, IM + PM (n = 4), mean ± SD, read-out: Tmax",9.5 ± 9.98 h
same,AUC(0-t),"im, 60 mg, CYP3A *1/*3, IM (n = 2), mean ± SD, read-out: AUClast",186 ± 211 ng·h/mL
same,Cmax,"im, 60 mg, CYP3A *1/*3, IM (n = 2), mean ± SD, read-out: Cmax",11.9 ± 12.7 ng/mL
same,Tmax,"im, 60 mg, CYP3A *1/*3, IM (n = 2), mean ± SD, read-out: Tmax",3.5 ± 3.54 h
same,AUC(0-t),"oral, 40 mg/day, ABCB1 rs1045642 T>C, C/C (n 5), read-out: AUClast (SD)",17.8 ng·h/mL
same,Cmax,"oral, 40 mg/day, ABCB1 rs1045642 T>C, C/C (n 5), read-out: Cmax (SD)",2.42 ng/mL
same,Tmax,"oral, 40 mg/day, ABCB1 rs1045642 T>C, C/C (n 5), read-out: Tmax (SD)",17.2 h
same,AUC(0-t),"oral, 40 mg/day, ABCB1 rs1045642 T>C, T/C (n 7), read-out: AUClast (SD)",63.6 ng·h/mL
same,Cmax,"oral, 40 mg/day, ABCB1 rs1045642 T>C, T/C (n 7), read-out: Cmax (SD)",8.03 ng/mL
same,Tmax,"oral, 40 mg/day, ABCB1 rs1045642 T>C, T/C (n 7), read-out: Tmax (SD)",6 h
same,AUC(0-t),"oral, 40 mg/day, ABCB1 rs1045642 T>C, T/T (n 4), read-out: AUClast (SD)",35.5 ng·h/mL
same,Cmax,"oral, 40 mg/day, ABCB1 rs1045642 T>C, T/T (n 4), read-out: Cmax (SD)",4.63 ng/mL
same,Tmax,"oral, 40 mg/day, ABCB1 rs1045642 T>C, T/T (n 4), read-out: Tmax (SD)",9.5 h
same,AUC(0-t),"oral, 40 mg/day, ABCB1 rs1128503 T>C, C/C (n 8), read-out: AUClast (SD)",34.6 ng·h/mL
same,Cmax,"oral, 40 mg/day, ABCB1 rs1128503 T>C, C/C (n 8), read-out: Cmax (SD)",4.84 ng/mL
same,Tmax,"oral, 40 mg/day, ABCB1 rs1128503 T>C, C/C (n 8), read-out: Tmax (SD)",12.9 h
same,AUC(0-t),"oral, 40 mg/day, ABCB1 rs1128503 T>C, C/T (n 6), read-out: AUClast (SD)",46.4 ng·h/mL
same,Cmax,"oral, 40 mg/day, ABCB1 rs1128503 T>C, C/T (n 6), read-out: Cmax (SD)",5.24 ng/mL
same,Tmax,"oral, 40 mg/day, ABCB1 rs1128503 T>C, C/T (n 6), read-out: Tmax (SD)",9.5 h
same,AUC(0-t),"oral, 40 mg/day, ABCB1 rs1128503 T>C, T/T (n 2), read-out: AUClast (SD)",60.9 ng·h/mL
same,Cmax,"oral, 40 mg/day, ABCB1 rs1128503 T>C, T/T (n 2), read-out: Cmax (SD)",8.35 ng/mL
same,Tmax,"oral, 40 mg/day, ABCB1 rs1128503 T>C, T/T (n 2), read-out: Tmax (SD)",3 h
same,AUC(0-t),"oral, 40 mg/day, ABCB1 rs2032582 G>T, G/G (n 8), read-out: AUClast (SD)",34.6 ng·h/mL
same,Cmax,"oral, 40 mg/day, ABCB1 rs2032582 G>T, G/G (n 8), read-out: Cmax (SD)",4.84 ng/mL
same,Tmax,"oral, 40 mg/day, ABCB1 rs2032582 G>T, G/G (n 8), read-out: Tmax (SD)",12.9 h
same,AUC(0-t),"oral, 40 mg/day, ABCB1 rs2032582 G>T, G/T (n 6), read-out: AUClast (SD)",46.4 ng·h/mL
same,Cmax,"oral, 40 mg/day, ABCB1 rs2032582 G>T, G/T (n 6), read-out: Cmax (SD)",5.24 ng/mL
same,Tmax,"oral, 40 mg/day, ABCB1 rs2032582 G>T, G/T (n 6), read-out: Tmax (SD)",9.5 h
same,AUC(0-t),"oral, 40 mg/day, ABCB1 rs2032582 G>T, T/T (n 2), read-out: AUClast (SD)",60.9 ng·h/mL
same,Cmax,"oral, 40 mg/day, ABCB1 rs2032582 G>T, T/T (n 2), read-out: Cmax (SD)",8.35 ng/mL
same,Tmax,"oral, 40 mg/day, ABCB1 rs2032582 G>T, T/T (n 2), read-out: Tmax (SD)",3 h
same,AUC(0-t),"oral, 40 mg/day, ABCB1 rs4148738 C>T, C/C (n 2), read-out: AUClast (SD)",60.9 ng·h/mL
same,Cmax,"oral, 40 mg/day, ABCB1 rs4148738 C>T, C/C (n 2), read-out: Cmax (SD)",8.35 ng/mL
same,Tmax,"oral, 40 mg/day, ABCB1 rs4148738 C>T, C/C (n 2), read-out: Tmax (SD)",3 h
same,AUC(0-t),"oral, 40 mg/day, ABCB1 rs4148738 C>T, T/C (n 6), read-out: AUClast (SD)",46.4 ng·h/mL
same,Cmax,"oral, 40 mg/day, ABCB1 rs4148738 C>T, T/C (n 6), read-out: Cmax (SD)",5.24 ng/mL
same,Tmax,"oral, 40 mg/day, ABCB1 rs4148738 C>T, T/C (n 6), read-out: Tmax (SD)",9.5 h
same,AUC(0-t),"oral, 40 mg/day, ABCB1 rs4148738 C>T, T/T (n 8), read-out: AUClast (SD)",34.6 ng·h/mL
same,Cmax,"oral, 40 mg/day, ABCB1 rs4148738 C>T, T/T (n 8), read-out: Cmax (SD)",4.84 ng/mL
same,Tmax,"oral, 40 mg/day, ABCB1 rs4148738 C>T, T/T (n 8), read-out: Tmax (SD)",12.9 h
same,AUC(0-t),"oral, 40 mg, CYP2C8 rs10509681 T/C (n 3), read-out: AUClast (SD)",46.9 ng·h/mL
same,Cmax,"oral, 40 mg, CYP2C8 rs10509681 T/C (n 3), read-out: Cmax (SD)",7.06 ng/mL
same,Tmax,"oral, 40 mg, CYP2C8 rs10509681 T/C (n 3), read-out: Tmax (h, SD)",16.7 h
same,AUC(0-t),"oral, 40 mg, CYP2C8 rs10509681 T/T (n 13), read-out: AUClast (SD)",41.2 ng·h/mL
same,Cmax,"oral, 40 mg, CYP2C8 rs10509681 T/T (n 13), read-out: Cmax (SD)",5.05 ng/mL
same,Tmax,"oral, 40 mg, CYP2C8 rs10509681 T/T (n 13), read-out: Tmax (h, SD)",8.92 h
same,AUC(0-t),"oral, 40 mg, CYP2C8 rs11572080 C/C (n 13), read-out: AUClast (SD)",41.2 ng·h/mL
same,Cmax,"oral, 40 mg, CYP2C8 rs11572080 C/C (n 13), read-out: Cmax (SD)",5.05 ng/mL
same,Tmax,"oral, 40 mg, CYP2C8 rs11572080 C/C (n 13), read-out: Tmax (h, SD)",8.92 h
same,AUC(0-t),"oral, 40 mg, CYP2C8 rs11572080 C/T (n 3), read-out: AUClast (SD)",46.9 ng·h/mL
same,Cmax,"oral, 40 mg, CYP2C8 rs11572080 C/T (n 3), read-out: Cmax (SD)",7.06 ng/mL
same,Tmax,"oral, 40 mg, CYP2C8 rs11572080 C/T (n 3), read-out: Tmax (h, SD)",16.7 h
same,AUC(0-t),"oral, 40 mg, CYP2C9 *1/*1, NM (n = 8), mean ± SD, read-out: AUClast",54.5 ± 49.4 ng·h/mL
same,Cmax,"oral, 40 mg, CYP2C9 *1/*1, NM (n = 8), mean ± SD, read-out: Cmax",7.28 ± 8.71 ng/mL
same,Tmax,"oral, 40 mg, CYP2C9 *1/*1, NM (n = 8), mean ± SD, read-out: Tmax",8 ± 7.15 h
same,AUC(0-t),"oral, 40 mg, CYP2C9 *2/*3, *3/*3, PM (n = 2), mean ± SD, read-out: AUClast",18.6 ± 22.5 ng·h/mL
same,Cmax,"oral, 40 mg, CYP2C9 *2/*3, *3/*3, PM (n = 2), mean ± SD, read-out: Cmax",3.11 ± 3.75 ng/mL
same,Tmax,"oral, 40 mg, CYP2C9 *2/*3, *3/*3, PM (n = 2), read-out: Tmax",24 h
same,AUC(0-t),"oral, 40 mg, CYP2C19 *1/*1, NM (n = 6), mean ± SD, read-out: AUClast",33.1 ± 48.1 ng·h/mL
same,Cmax,"oral, 40 mg, CYP2C19 *1/*1, NM (n = 6), mean ± SD, read-out: Cmax",5.25 ± 8.82 ng/mL
same,Tmax,"oral, 40 mg, CYP2C19 *1/*1, NM (n = 6), mean ± SD, read-out: Tmax",15.5 ± 9.95 h

# From publication PMC12655527, “An Investigational Study on the Role of ADME Agents’ Genetic Variation on DD217 Pharmacokinetics and Safety Profile” (Pharmaceuticals, 2025)
